These results are taken from the supplement of paper PMC11061612.

Test in all cases: combination Emax (second highest fraction inhibited in the dose matrix, 72 h); higher = more inhibition; extreme values may be limits of the assay
Test [1] concerns COLO-668 (Small Cell Lung Carcinoma). The procedure, abridged:
(§1)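 After 24 hours at 37°C and 5% CO2 in 1536-well plates, cells in DMEM/F12 or RPMI plus 10% FBS received two-drug dose matrices for 72 hours. Viability came from CellTiter-Glo 2.0 luminescence and was scaled as inhibition, anchored at 0 by vehicle wells and at 1 by blank wells. Combination Emax is taken as the second-highest inhibition in the matrix, and Bliss excess as the observed combination effect less EA + EB − EA·EB, with EA and EB the single-agent effects.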

Test [2] has as its system OE33 (Esophageal Adenocarcinoma). The procedure, abridged: as §1
The test system of test [3] is ML-2 (Acute Myeloid Leukemia). The method in brief:
as §1

In test [4] the test system is ALL-SIL (T-Lymphoblastic Leukemia). The procedure, abridged: as §1
Test [5] concerns EFO-21 (Ovarian Carcinoma). The procedure, abridged: as §1
The test system of test [6] is SW982 (Other Solid Carcinomas). The method in brief:
as §1

Test [7] has as its system CADO-ES1 (Ewing's Sarcoma). The method in brief: as §1
The next test has as its system Hey (Ovarian Carcinoma). The procedure, abridged: as §1
Test [8] concerns EJM (Plasma Cell Myeloma). The procedure, abridged:
as §1

Test [9] deals with KMRC-1 (Kidney Carcinoma). The method in brief:
as §1

The test system of test [10] is NCI-H1355 (Lung Adenocarcinoma). The procedure, abridged: as §1
The subject of test [11] is NCI-H522 (Lung Adenocarcinoma). The procedure, abridged:
as §1

In test [12] the test system is LC-1-sq (Squamous Cell Lung Carcinoma). The procedure, abridged:
as §1

Test [13] concerns G-401 (Other Solid Carcinomas). The method in brief:
as §1

The test system of test [14] is Mo-T (Other Blood Carcinomas). The method in brief: as §1
The test system of test [15] is DU-145 (Prostate Carcinoma). The method in brief: as §1
Test [16] concerns SKN (Other Solid Carcinomas). The method in brief:
as §1

The test system of test [17] is Ca-Ski (Cervical Carcinoma). The method in brief: as §1
Another test concerns SK-N-AS (Neuroblastoma). The method in brief: as §1
The subject of test [18] is HCC2998 (Colorectal Carcinoma). The procedure, abridged: as §1

Regarding `COc1cccc(OCCCN)c1-c1cc(Nc2cnc(C#N)cn2)n[nH]1` [Prexasertib] + C[C@@H]1COCCN1C2=NC(=NC(=C2)C3(CC3)[S@](=N)(=O)C)C4=C5C=CNC5=NC=C4 [AZD6738] (first compound max 1 µM, 7x7, partner max 10 µM), the “combination Emax” value in [1] worked out at 0.746; in [2] it was 0.858; in test [3] it was 1; in test [4] it was 0.993; in [5], 0.638; in test [6] it was 0.723. Also, the “combination Emax” value in test [7] worked out at 0.918; with Hey (Ovarian Carcinoma), 0.877; in test [8], 0.947; in [9], 0.555; in [10], 0.74; in test [11], 0.388. Moreover, the “combination Emax” value in test [12] was found to be 0.965; in test [13], 0.565; in test [14] it was 0.571; in [15], 0.666; in [16] it was 0.465; in [17] it was 0.728. The “combination Emax” value in the test with SK-N-AS (Neuroblastoma) was 0.976; in [18] it was 0.967.
Turning to `COc1cccc(OCCCN)c1-c1cc(Nc2cnc(C#N)cn2)n[nH]1` [Prexasertib] + Cc1cc2ncnn2cc1Nc1ncc2c(n1)n(C1CCOCC1)c(=O)n2C [AZD7648] (first compound max 1 µM, 7x7, partner max 10 µM), the “combination Emax” value in test [1] amounted to 0.786; in test [2], 0.823; in test [3] it was 1; in [4], 0.983; in test [5] it was 0.656; in test [6], 0.774. The “combination Emax” value was 0.94 in test [7]; 0.777 with Hey (Ovarian Carcinoma); 0.941 in [8]; 0.539 in test [9]; 0.714 in test [10]; 0.385 in test [11]. In addition, the “combination Emax” value in test [12] came to 0.944; in test [13], 0.588; in test [14], 0.523; in test [15] it was 0.649; in test [16], 0.425; in test [17], 0.794. Further, the “combination Emax” value with SK-N-AS (Neuroblastoma) was 0.984; in test [18] it was 0.954.
With `COc1cccc(OCCCN)c1-c1cc(Nc2cnc(C#N)cn2)n[nH]1` [Prexasertib] + O=C(c1cc(Cc2n[nH]c(=O)c3ccccc23)ccc1F)N1CCN(C(=O)C2CC2)CC1 [Olaparib] (first compound max 1 µM, 7x7, partner max 10 µM), the “combination Emax” value in test [1] came to 0.736; in [2], 0.691; in [3] it was 1; in test [4], 0.992; in [5], 0.61; in test [6], 0.767. Further, the “combination Emax” value is 0.943 in test [7]; 0.827 in the test on Hey (Ovarian Carcinoma); 0.969 in [8]; 0.558 in test [9]; 0.746 in test [10]; 0.418 in test [11]. The “combination Emax” value in [12] came to 0.956; in [13], 0.533; in [14], 0.52; in test [15], 0.603; in test [16] it was 0.439; in [17], 0.787. The “combination Emax” value in the test on SK-N-AS (Neuroblastoma) amounted to 0.995; in test [18] it was 0.957.
In the case of `CCc1c2c(nc3ccc(O)cc13)-c1cc3c(c(=O)n1C2)COC(=O)[C@]3(O)CC` [SN-38] + CN(C)CCCOc1ccc(-c2ccc3ncc4c(c3c2)n(C2CCOCC2)c(=O)n4C)cn1 [AZD0156] (first compound max 0.3 µM, 7x7, partner max 1 µM), the “combination Emax” value is 0.961 in [1]; 0.642 in [2]; 1 in test [3]; 0.995 in test [4]; 0.529 in [5]; 0.803 in [6]. In addition, the “combination Emax” value in test [7] amounted to 1; in the test with Hey (Ovarian Carcinoma) it was 0.732; in test [8], 0.903; in [9], 0.419; in test [10], 0.361; in test [11], 0.43. Further, the “combination Emax” value in test [12] came to 0.442; in [13], 0.596; in [14], 0.673; in [15], 0.742; in test [16], 0.412; in [17] it was 0.99. Also, the “combination Emax” value was 0.737 in the test on SK-N-AS (Neuroblastoma) and 0.867 in test [18].
Turning to `Cn1cnc2c(F)c(Nc3ccc(Br)cc3Cl)c(C(=O)NOCCO)cc21` [Selumetinib] + C=CCn1c(=O)c2cnc(Nc3ccc(N4CCN(C)CC4)cc3)nc2n1-c1cccc(C(C)(C)O)n1 [AZD1775] (first compound max 10 µM, partner max 1 µM), the “combination Emax” value turned out to be 0.47 in [1]; 0.445 in test [2]; 0.994 in test [3]; 0.881 in test [4]; 0.315 in [5]; 0.633 in test [6]. Besides, the “combination Emax” value was found to be 0.294 in test [7]; 0.719 in the test with Hey (Ovarian Carcinoma); 0.867 in test [8]; 0.203 in test [9]; 0.479 in [10]; 0.177 in test [11]. The “combination Emax” value in test [12] worked out at 0.696; in [13], 0.828; in test [14], 0.482; in test [15], 0.239; in test [16], 0.353; in test [17], 0.711. The “combination Emax” value in the test on SK-N-AS (Neuroblastoma) was determined as 0.817; in test [18], 0.806.
In the case of `Cn1cnc2c(F)c(Nc3ccc(Br)cc3Cl)c(C(=O)NOCCO)cc21` [Selumetinib] + CC(C)n1c(=O)n(C)c2cnc3cc(F)c(-c4ccc(OCCCN5CCCCC5)nc4)cc3c21 [AZD1390] (first compound max 10 µM, 7x7, partner max 0.3 µM), the “combination Emax” value in test [1] stood at 0.421; in test [2], 0.265; in [3], 0.78; in [4], 0.25; in [5], 0.205; in [6], 0.266. The “combination Emax” value is 0.175 in [7]; 0.549 with Hey (Ovarian Carcinoma); 0.0932 in test [8]; 0.165 in test [9]; 0.172 in test [10]; 0.0811 in test [11]. Besides, the “combination Emax” value in test [12] was 0.184; in [13] it was 0.367; in [14] it was 0.246; in test [15], 0.16; in test [16], 0.113; in test [17], 0.222. In addition, the “combination Emax” value with SK-N-AS (Neuroblastoma) came to 0.422; in [18], 0.719.
For the compound `Cn1cnc2c(F)c(Nc3ccc(Br)cc3Cl)c(C(=O)NOCCO)cc21` [Selumetinib] + CCN(CCO)CCCOc1ccc2c(Nc3cc(CC(=O)Nc4cccc(F)c4)[nH]n3)ncnc2c1 [AZD2811] (first compound max 10 µM, 7x7, partner max 1 µM), the “combination Emax” value in test [1] was 0.407; in test [2], 0.364; in [3], 1; in test [4] it was 0.961; in test [5] it was 0.212; in test [6], 0.594. In addition, the “combination Emax” value turned out to be 0.276 in test [7]; 0.611 in the test with Hey (Ovarian Carcinoma); 0.175 in test [8]; 0.233 in [9]; 0.275 in [10]; 0.171 in test [11]. Further, the “combination Emax” value in test [12] was 0.303; in test [13], 0.561; in [14], 0.238; in [15] it was 0.203; in [16] it was 0.255; in test [17], 0.54. Further, the “combination Emax” value in the test with SK-N-AS (Neuroblastoma) was found to be 0.496; in test [18], 0.792.
